According to patent publication US10959433B2, “Use of cationic steroidal antimicrobials for sporicidal activity” (BRIGHAM YOUNG UNIVERSITY, priority 2017, dated 2021):

Experiments:
[1] = tested on: vegetative form of B. subtilis; assay: Viability (CFU) assay, vegetative form; assay type: cell-based, Bacillus subtilis ATCC 6051; conditions: RT, incubation time 240 min
Protocol: (§1) A viability assay of bacterial spores in the presence of a CSA compound was performed according to the protocol presented by Ghosh and Setlow. Ghosh, S. and P. Setlow, Isolation and characterization of superdormant spores of Bacillus species. J Bacteriol, 2009. 191(6): p. 1787-97. Spore suspensions in PBS were brought to […] and incubated with various concentrations of CSA-13. To evaluate the effect of treatment time on the killing properties of the antibiotic, incubation was performed for 15, 30, 60, 120 and 240 min, respectively. To investigate the effect of temperature on sporicidal properties, incubation at room temperature (RT) and at 70° C. was performed. After incubation, the plates were transferred to ice and suspensions were diluted 10- to 1000-fold in PBS. Then, 10 μL aliquots were spotted on LB agar plates for overnight culture at 37° C. and CFUs were determined. Cell survival, after exposure to the tested agent, was expressed as percent of control.
FIG. 4 includes graphs showing decreased survival of CSA-13-treated B. subtilis spores. FIG. 4, panels A-C show decline in the survival of B. subtilis culture after incubation with various concentrations of CSA-13. FIG. 4, panels D-F show Level of metabolic activity observed in ceragenin (CSA)-treated spore samples exposed to appropriate environmental conditions when compared to untreated control. […]

B. subtilis spores [2] = assay: Viability (CFU) assay of bacterial spores; assay type: cell-based, Bacillus subtilis ATCC 6051
Protocol: (§2) This example studied the ability of a CSA compound (e.g., CSA-13) to kill sporulated bacterial, namely Bacillus subtilis ATCC 6051 spores. To prepare Bacillus subtilis ATCC 6051 spores, bacteria were grown on LB (Luria-Bertani) agar plates without antibiotics at 37° C. for 72 h. Bacteria were harvested, re-suspended in ice-cold phosphate buffered saline (PBS) solution and purified by triple centrifugation (12 000×g, 10 min, 4° C.). The spore suspension was heat treated (75° C., 15 min) to remove remaining vegetative cells, cooled, stored in water at 4° C. and protected from light until analysis. […] Zhang, P., P. Setlow, and Y. Li, Characterization of single heat-activated Bacillus spores using laser tweezers Raman spectroscopy. Opt Express, 2009. 17(19): p. 16480-91. All spores used in this work were free of vegetative cells (>98%), as determined by staining cells using Schaeffer and Fulton Spore Stain Kit (Sigma-Aldrich, St Louis, Mo., USA). Additionally, to confirm the formation of spores during preparation, purified samples were investigated using transmission electron microscopy (TEM, Tecnai G2 X-TWIN, FEI, USA).
as §1
FIG. 4 includes graphs showing decreased survival of CSA-13-treated B. subtilis spores. FIG. 4, panels A-C show decline in the survival of B. subtilis culture after incubation with various concentrations of CSA-13. FIG. 4, panels D-F show Level of metabolic activity observed in ceragenin (CSA)-treated spore samples exposed to appropriate environmental conditions when compared to untreated control. Samples were incubated at RT (panels A, D for vegetative form and panels B, E for spore form, respectively) and at 70° C. (panels C, F) for 15 (white squares), 30 (grey circles), 60 (black circles), 120 (white triangles) and 240 (grey diamonds) minutes. […]

[3] = tested on: vegetative cells of B. subtilis; assay: MTT assay of metabolic activity, vegetative cells; assay type: cell-based, Bacillus subtilis; conditions: RT (FIG. 4, panel D)
Protocol: (§3) As an additional confirmation of results, the presence of a metabolically active fraction of cells was investigated using MTT assay. After incubation of spores with various concentrations of CSA-13 in a non-growing medium (PBS), 20 μL of MTT solution (thiazolyl blue tetrazolium bromide, Sigma-Aldrich, St Louis, Mo., USA, 5 mg/mL) and 100 μL of LB medium broth were added. Incubation at 37° C. was continued for 8 h. Medium was removed, and 100 μL of dimethyl sulfoxide solution (DMSO) was added to dissolve the MTT precipitate. Cells were allowed to stand at room temperature (RT) for 10 min with shaking. Absorbance values were detected at a wavelength of 570 nm using a microplate spectrophotometer. Absorbance values obtained in control spores cultures (without a tested agent) were taken as 100%. As positive controls, 1 M HCl (for spore treatment at RT) and 70% ethanol (for spore treatment at 70° C.) were employed. The average of all the experiments was presented in comparison to the level of metabolic activity detected in non-treated B. subtilis suspension. Incubation of both vegetative cells and spores of B. subtilis was performed for 15, 30, 60, 120 and 240 min.

B. subtilis spores [4] = assay: MTT assay of metabolic activity, spores; assay type: cell-based, Bacillus subtilis; conditions: LB broth 37° C. 8 h after treatment at RT or 70° C. (FIG. 4, panels E, F)
Protocol: as §3, with “Incubation of both vegetative cells and spores of B. subtilis was performed for 15, 30, 60, 120 and 240 min.” left out
The results of viability testing largely correlate with data obtained in the MTT assay. […] The incubation of non-treated spores in LB broth at 37° C. results in reactivation of metabolic activity confirmed by increasing formazan reduction and subsequent rise in an absorbance value. […]

B. subtilis spores [5] = assay: Spore germination by optical density (OD600); assay type: cell-based, Bacillus subtilis; conditions: 10 to 100 μg/mL, 1 h at RT in PBS, then LB broth, OD600 for 60 min (FIG. 5, panel A)
Protocol: To further assess germination processes in antibiotic-treated samples, a spectrophotometric method was employed. Isolated spores were incubated at RT for 1 h in PBS with concentrations of CSA-13 ranging from 10 to 100 μg/mL. Then 100 μL of LB broth was added, and optical densities at 600 nm (OD600) were monitored, using a microplate reader (Synergy H1, BioTek, VT, USA), for 60 min. FIG. 5 includes graphs showing inhibitory effect of CSA-13 on B. subtilis spore germination assessed by the measurement of optical density for spore suspension with increasing concentrations of the antibiotic (10 μg/mL—white squares; 20 μg/mL—white diamonds; 50 μg/mL—black triangles; 100 μg/mL—black diamonds), when compared with control (CT—grey circles) (panel A). Release of rhodamine 6G from external layers of B. subtilis spores after treatment with 20 μg/ml of CSA-13 (black square) and vancomycin (VAN; grey square) (panel B).

[6] = tested on: external layers of B. subtilis spores; assay: Release of rhodamine 6G from the surface of spores; assay type: cell-based, Bacillus subtilis
Protocol: The release of rhodamine 6G absorbed on the surface of Bacillus spores was evaluated using the Maesaki method (Maesaki, S., et al., Rhodamine 6G efflux for the detection of CDR1-overexpressing azole-resistant Candida albicans strains. J Antimicrob Chemother, 1999. 44(1): p. 27-31) with minor modifications. To stain cells with rhodamine 6G, the dye was added to a final concentration of 10 μM for 10 min. Non-absorbed dye was removed by centrifugation for 2 min at 10 000×g. Next, stained cells were washed and CSA-13 at 20 μg/mL was added. After incubation for 10, 30, 60 and 120 min, supernatant was collected by centrifugation and absorption at 527 nm was measured. The total concentration of rhodamine 6G released from the surface of spores was calculated using a standard concentration curve. The level of antibiotic-induced release was presented as the difference between the concentration of rhodamine 6G released from treated spores and control samples.

[7] = tested on: membrane of vegetative and spore form of B. subtilis; assay: Affinity of FITC-labeled CSA-13 to cell membranes (fluorimetric); assay type: binding, Bacillus subtilis; conditions: FITC-labeled CSA-13, 20 μg/mL
Protocol: To assess the affinity/binding of CSA-13 for the outer bacterial membrane, CSA-13 was labeled with fluorescein isothiocyanate (FITC) and added to the suspensions of vegetative cell and spores, to a final concentration of 20 μg/mL. […] To evaluate whether affinity of CSA-13 is influenced by the surface electrical properties of cells, zeta potentials of vegetative bacteria and spore suspensions were assessed using Zetasizer Nano ZS (Malvern Instruments, United Kingdom). Bacterial and spore cultures were brought to OD600˜0.1 in PBS buffer (pH=7). To evaluate the effect of the ceragenin on zeta potential value, CSA-13 was added at the concentration of 100 μg/mL to the spore suspension, incubated for 15 minutes and transferred to a cuvette. Measurements were conducted at 25° C.

B. subtilis spores [8] = assay: TEM of treated spores (morphology, membrane permeability); assay type: cell-based, Bacillus subtilis; conditions: 50 μg/mL and 200 μg/mL, 1 hour, RT and 70° C. (FIG. 3, panels C-F)
Protocol: as §2
To visualize alterations in morphology and membrane permeability of treated spores, a suspension of spores (OD600˜0.5) in distilled water was treated with CSA-13 at concentrations of 50 μg/mL and 200 μg/mL and incubated for 1 hour at RT and 70° C. […]

B. subtilis spores [9] = assay: Confocal Raman spectroscopy of single spores (CaDPA content); assay type: cell-based, Bacillus subtilis; conditions: 50 μg/mL and 200 μg/mL
Protocol: For Raman spectroscopy analyses, spores of B. subtilis were suspended in 100 μL of distilled water and treated with CSA-13 (50 μg/mL and 200 μg/mL) for 1 hour at RT and 70° C. Samples were transferred to polished calcium fluoride (CaF2) optical windows (Crystran, United Kingdom) and dried at 60° C. Raman spectra were recorded using a Renishaw InVia Raman spectrometer equipped with an optical confocal microscope, an air-cooled laser emitting at 532 nm, and an CCD detector thermoelectrically cooled to −70° C. A dry Leica N PLAN EPI (100×, NA 0.85) objective was used. The power of the laser at the sample position was ca. 1.5 mW. A sum of 20 scans with integration time of 20 seconds and a resolution of 0.5 cm^−1 was collected. The spectrometer was calibrated using the Raman scattering line generated by an internal silicon plate. A laser spot (diameter of ca. 760 nm) was focused on a single spore and then the measurement was performed. All spectra were smoothed and baseline corrected. Results from one representative experiment are provided.
FIGS. 7 and 8 show Raman spectra collected from B. subtilis spores incubated at RT and at 70° C., respectively, with corresponding confocal microscopy images. Panels A1 and A2—control sample, panels B1 and B2—50 μg/mL of CSA-13, panels C1 and C2—200 μg/mL of CSA-13. Asterisks denote CaDPA bands well separated from bands of spore biocomponents. […]

CCCCCCCCNCCC[C@@H](C)[C@H]1CC[C@H]2[C@@H]3[C@H](OCCCN)C[C@@H]4C[C@H](OCCCN)CC[C@]4(C)[C@H]3C[C@H](OCCCN)[C@]12C [CSA-13]
concentration at which all vegetative cells were killed [1]: 15 µg/mL
effect of elevated temperature on sporicidal activity (B. subtilis spores [2]; 70° C. versus room temperature): elevated temperature significantly intensifies the activity
concentration killing bacterial spores (B. subtilis spores [2]; 70° C., incubation 120 and 240 minutes): 5 µg/mL
concentration sufficient to inhibit the growth of spores (B. subtilis spores [2]; 70° C., incubation 15 min (FIG. 4, panel C)): 20 µg/mL
concentration giving total inhibition of spore growth potential (B. subtilis spores [2]; RT, regardless of incubation time (15-240 min) (FIG. 4, panel B)): 100 µg/mL
concentration at which vegetative cells showed no detectable metabolism [3]: 20 µg/mL
metabolic activity of treated spores after exposure to favorable conditions (B. subtilis spores [4]): only a small fraction of spores was able to resume proper metabolic activity
effect on spore germination (OD600) (B. subtilis spores [5]): strong interference in the germination
rhodamine 6G release compared with vancomycin ([6]; 20 μg/mL of each): significantly higher than that of vancomycin
release of rhodamine 6G from spores ([6]; 20 μg/mL, 10-120 min (FIG. 5, panel B)): resulted in the release of dye
affinity for the external layers of spores [7]: high affinity
affinity for spores versus vegetative form ([7]; recorded 15 min (FIG. 6, panel A)): greater affinity for the spores than for the vegetative form of bacteria
change of spore structure in TEM micrographs (B. subtilis spores [8]): disruption of spore membrane architecture
percentage of CaDPA negative spores, 70° C. versus room temperature (B. subtilis spores [9]; 1 hour (FIG. 8)): greater compared to sample treated at room temperature
number of CaDPA positive spores after treatment (B. subtilis spores [9]; 1 hour, versus untreated): significant reduction of the number of CaDPA positive cells
